Test results taken from publication PMC9712021 (Advances in Pharmacological and Pharmaceutical Sciences, 2022).

What was measured:
[1] = system: S. cerevisiae EG (Sod1∆Cat1∆); experiment: S. cerevisiae central disc test, oxidative damage, strain Sod1∆Cat1∆; assay type: cell-based, Saccharomyces cerevisiae
Description: (§1) The central disc test was done according to the method presented by Islam et al.. Superoxide dismutase (CuZnSOD-Sod1) is a cytosolic enzyme that is faulty in strain EG118, whereas mitochondrial SOD is faulty in strain EG110 (MnSOD-Sod2). The strain EG133 has both Sod1 and Sod2 defects, while EG223 has a cytosolic catalase deficiency (Cat1). While EG103 is a competent strain that is identical to the wild-type (SODWT), EG is a dual isogenic strain for the Sod1 and Cat1 genes.

[2] = system: S. cerevisiae EG223 (Cat1∆); experiment: S. cerevisiae central disc test, oxidative damage, strain Cat1∆; assay type: cell-based, Saccharomyces cerevisiae
Description: as §1

[3] = system: S. cerevisiae EG133 (Sod1∆Sod2∆); experiment: S. cerevisiae central disc test, oxidative damage, strain Sod1∆Sod2∆; assay type: cell-based, Saccharomyces cerevisiae
Description: as §1

[4] = Hemolytic activity in mice erythrocytes; assay type: cell-based, Mus musculus; conditions: male, Swiss albino, mouse, pH 7.4, 37°C, 2 h
Description: This test was performed on adult Swiss albino mouse (Mus musculus) erythrocytes. The mouse was collected from the Central Animal House of the Federal University of Piaui, Brazil. It was allowed free access to standard food and water ad libitum and was kept under controlled lighting (12 h dark/light cycles) at 24 ± 2°C. Blood was collected from the retro-orbital plexus of the mouse (male, 24 gm body weight). Hemolytic activity in mouse erythrocytes was performed, according to Jamialahmadi et al..

[5] = system: S. cerevisiae EG110 (Sod2∆); experiment: S. cerevisiae central disc test, oxidative damage, strain Sod2∆; assay type: cell-based, Saccharomyces cerevisiae
Description: as §1

[6] = system: S. cerevisiae EG118 (Sod1∆); experiment: S. cerevisiae central disc test, oxidative damage, strain Sod1∆; assay type: cell-based, Saccharomyces cerevisiae
Description: as §1

[7] = system: S. cerevisiae EG103 (SODWT); experiment: S. cerevisiae central disc test, oxidative damage, strain SODWT; assay type: cell-based, Saccharomyces cerevisiae; parameters: unit not given here
Description: as §1

[8] = parameters: method as in Oliveira [41]; conditions: concentrations from 7.83 to 500 μg/mL; ref Oliveira [41]; cited from earlier work
[9] = DPPH radical scavenging capacity assay; conditions: 0.9–14.4 μg/mL; standard Trolox
Description: The DPPH assay was performed according to the method described by Abderrahim et al.. Briefly, a solution containing 300 μL of monoterpenes (0.9–14.4 μg/mL) was added to 2.7 mL of DPPH^• solution (0.5 mM in ethanol). After 30 min, the absorbance was measured using a spectrophotometer (Shimadzu, Japan) at 517 nm.

[10] = system: S. cerevisiae strains (SODWT, Sod1Δ, Sod2Δ, Cat1Δ, Sod1/Sod2Δ, Cat1Δ/Sod1Δ); experiment: In vivo antioxidant (S. cerevisiae) test, all strains tested; assay type: cell-based, Saccharomyces cerevisiae; conditions: all strains and concentrations tested
Description: as §1

Work on C=CCc1ccc(OC)cc1 [Estragole, estragole] yielded an oxidative damage ([1]; 0.9 μg/mL) of 3.50 ± 0.70, an oxidative damage ([1]; 1.8 μg/mL) of 4.00 ± 2.82 and an oxidative damage ([1]; 7.2 μg/mL) of 3.50 ± 0.70. The oxidative damage ([1]; 14.4 μg/mL) was 5.00 ± 0.0, the oxidative damage ([1]; 32 μg/mL) was 4.50 ± 0.70 and the oxidative damage ([1]; 64 μg/mL) was 3.00 ± 1.41. It also gave an oxidative damage ([1]; 128 μg/mL) of 4.50 ± 2.12, an oxidative damage ([1]; 256 μg/mL) of 3.00 ± 2.82 and an oxidative damage ([1]; 3.6 mg/mL) of 4.00 ± 1.41. It also gave an oxidative damage ([1]; 500 mg/mL) of 3.50 ± 0.70, an oxidative damage ([2]; 0.9 μg/mL) of 3.00 ± 1.41 and an oxidative damage ([2]; 1.8 μg/mL) of 4.50 ± 0.70. The oxidative damage ([2]; 7.2 μg/mL) was 1.50 ± 2.12, the oxidative damage ([2]; 14.4 μg/mL) was 4.50 ± 2.12 and the oxidative damage ([2]; 32 μg/mL) was 3.00 ± 1.41. For the same compound, the oxidative damage ([2]; 64 μg/mL) was 7.00 ± 1.41^∗, the oxidative damage ([2]; 128 μg/mL) was 2.50 ± 0.70 and the oxidative damage ([2]; 3.6 mg/mL) was 4.00 ± 1.41. For the same compound, the oxidative damage ([2]; 256 mg/mL) was 3.00 ± 1.41, the oxidative damage ([2]; 500 mg/mL) was 4.50 ± 0.70 and the oxidative damage ([3]; 0.9 μg/mL) was 3.50 ± 0.70. For the same compound, the oxidative damage ([3]; 1.8 μg/mL) was 3.50 ± 0.70, the oxidative damage ([3]; 7.2 μg/mL) was 2.50 ± 0.70 and the oxidative damage ([3]; 14.4 μg/mL) was 3.50 ± 0.70. It also gave an oxidative damage ([3]; 32 μg/mL) of 2.50 ± 0.70, an oxidative damage ([3]; 64 μg/mL) of 1.50 ± 0.70 and an oxidative damage ([3]; 128 μg/mL) of 3.00 ± 1.41. For the same compound, the oxidative damage ([3]; 3.6 mg/mL) was 2.50 ± 0.70, the oxidative damage ([3]; 256 mg/mL) was 2.50 ± 2.12 and the oxidative damage ([3]; 500 mg/mL) was 2.50 ± 0.70. The hemolysis at 2 h, 31.25 μg/mL ([4]; 31.25 μg/mL) was 1.67 ± 0.35%, the hemolysis at 2 h, 62.5 μg/mL ([4]; 62.5 μg/mL) was 3.49 ± 0.26% and the hemolysis at 2 h, 125 μg/mL ([4]; 125 μg/mL) was 4.45 ± 0.47%. For the same compound, the hemolysis at 2 h, 250 μg/mL ([4]; 250 μg/mL) was 8.21 ± 0.35%, the hemolysis at 2 h, 500 μg/mL ([4]; 500 μg/mL) was 10.3 ± 1.35% and the oxidative damage ([5]; 0.9 μg/mL) was 3.00 ± 1.41. For the same compound, the oxidative damage ([5]; 1.8 μg/mL) was 3.50 ± 0.70, the oxidative damage ([5]; 7.2 μg/mL) was 2.00 ± 0.54 and the oxidative damage ([5]; 14.4 μg/mL) was 3.50 ± 0.70. It also gave an oxidative damage ([5]; 32 μg/mL) of 2.00 ± 0.54, an oxidative damage ([5]; 64 μg/mL) of 3.50 ± 0.70 and an oxidative damage ([5]; 128 μg/mL) of 3.50 ± 0.70. For the same compound, the oxidative damage ([5]; 3.6 mg/mL) was 2.00 ± 0.54, the oxidative damage ([5]; 256 mg/mL) was 2.50 ± 0.70 and the oxidative damage ([5]; 500 mg/mL) was 3.00 ± 1.41. The oxidative damage ([6]; 0.9 μg/mL) was 2.00 ± 1.41, the oxidative damage ([6]; 1.8 μg/mL) was 1.50 ± 0.70 and the oxidative damage ([6]; 7.2 μg/mL) was 2.00 ± 1.41. For the same compound, the oxidative damage ([6]; 14.4 μg/mL) was 2.00 ± 0.54, the oxidative damage ([6]; 32 μg/mL) was 2.50 ± 0.70 and the oxidative damage ([6]; 64 μg/mL) was 2.50 ± 0.70. For the same compound, the oxidative damage ([6]; 128 μg/mL) was 2.50 ± 0.70, the oxidative damage ([6]; 3.6 mg/mL) was 2.50 ± 0.70 and the oxidative damage ([6]; 256 mg/mL) was 2.50 ± 0.70. The oxidative damage ([6]; 500 mg/mL) was 1.50 ± 0.70, the oxidative damage ([7]; 0.9 μg/mL) was 2.00 ± 0.54 and the oxidative damage ([7]; 1.8 μg/mL) was 1.50 ± 0.70. The oxidative damage ([7]; 7.2 μg/mL) was 2.00 ± 1.41, the oxidative damage ([7]; 14.4 μg/mL) was 2.50 ± 0.70 and the oxidative damage ([7]; 32 μg/mL) was 2.00 ± 0.54. The oxidative damage ([7]; 64 μg/mL) was 2.00 ± 0.54, the oxidative damage ([7]; 128 μg/mL) was 1.50 ± 0.70 and the oxidative damage ([7]; 3.6 mg/mL) was 1.00 ± 1.41. The oxidative damage ([7]; 256 mg/mL) was 3.50 ± 0.70, the oxidative damage ([7]; 500 mg/mL) was 1.50 ± 0.70 and the antioxidant capacity [8] was “mild antioxidant capacity”. For the same compound, the “DPPH radical scavenging activity” value [9] was “highest scavenging activity” and the “percentage modulation of oxidative damage caused by the stressor H2O2” value [10] was “more than 60%”.
